The values below are quoted from earlier work in US11173121B2, “Pellets having a multi-layer structure for delayed release of the active substance in the distal colon” (Dr. Falk Pharma GmbH, priority 2018, dated 2021).

Consider `CCCC1O[C@@H]2C[C@H]3[C@@H]4CCC5=CC(=O)C=C[C@]5(C)[C@H]4[C@@H](O)C[C@]3(C)[C@]2(C(=O)CO)O1` (stereo partly shown) [budesonide], for which the pKa value is on record as 12.85±0.10.
